Biological target: T1, aldose reductase (AKR1B1) (Homo sapiens, UniProt P15121)
T1 construct: recombinant human AKR1B1 protein (His Tag)
Assay: NADPH consumption at […] nm with DL-glyceraldehyde, recombinant enzyme
Assay type: biochemical

Structure (SMILES): COc1ccc(-c2cc(=O)c3c(O)c(OC)c(OC)cc3o2)cc1O [EUP, eupatorin]
- IC50: 203 ± 0.24 µM

Structure (SMILES): O=C(/C=C/c1ccc(O)c(O)c1)O[C@H](Cc1ccc(O)c(O)c1)C(=O)O [RA, rosmarinic acid]
- IC50: 41.4 ± 0.04 µM
